# Columns and labels:
# [1] = system: pho operon genes in S. meliloti cells; test: Quantitative RT-PCR analysis of pho operon genes; format: cell-based; settings: compounds 0.5 mM, 3 hours
# Method: FIG. S1. Quantitative RT-PCR analysis of pho operon genes in S. meliloti cells under P-sufficient conditions (13 mM K-phosphate). The relative expression level was >1 for genes more highly expressed in RD64 and in 1021 cells treated for 3 hours with 0.5 mM IAA, Ind, Trp, ICA and 2,4-D. The relative expression level was <1 for genes more highly expressed in 1021 cells (control). Error bars represent the standard deviation from three independent biological experiments.
# FIG. 1. Quantitative RT-PCR analysis of pho operon genes expression in S. meliloti cells under P-starving conditions. The relative expression level was >1 for genes more highly expressed in RD64 and in 1021 cells treated for 3 hours with 0.5 mM IAA, Ind, Trp, ICA and 2,4-D. The relative expression level was <1 for genes more highly expressed in 1021 cells (control). Error bars represent the standard deviation from five independent biological experiments (p<0.05).
# Total RNA from P-sufficient and P-starved cells was isolated as previously described (5). cDNA were synthesized with the StrataScript™ reverse transcription reagents (Stratagene) and random hexamers as primers. Quantitative PCR was performed with the Power SYBR PCR Master Mix (Applied Biosystems). Reactions were run on the iCycler iQ (Bio-Rad). The thermo cycling condition were: 15 min at 95° C., 40 cycles of denaturation at 95° C. for 20 s, annealing (20 s) and extension (35 s) at 72° C. Specific primer pairs, designed using the Primer3 software, are shown.
# smc02641 and smc00128 were used as housekeeping genes for data normalization in the comparative Ct method as previously described (8). Phosphatase Activity
# acid phosphatase = test: Acid phosphatase activity under P-starved conditions; format: cell-based, S. meliloti; settings: phosphate starvation; vs 1021 cells; compounds 0.5 mM, 3 hours at 30° C.
# S. meliloti cells = test: Organic acids exuded by S. meliloti cells (HPLC, GC-MS); format: cell-based; settings: minimal medium containing 5% PR as the sole phosphate source; IAA 0.5 mM where added
# Method: For phosphate solubilization experiments 5% Moroccan phosphate rock (PR) (Sigma-Aldrich, cat. No. 32) was used as P source. When 5% PR is used as P source to allow bacterial growth this is described as a P-limiting condition. At least five independent experiments were always performed.
# The organic acids were determined by HPLC with a reverse-phase Hypersil GOLD C18 (100×4.6 mm) column (Thermo Electron Corporation). The operating conditions and quantification were previously described (20).
# Organic acid fractions collected from HPLC were dried, derivatized to their tert-butyldimethylsilyl (tBDMS) derivatives and analysed on a Micromass GCT mass spectrometer (Waters corp, Manchester, UK) coupled to an Agilent 6890 Series gas chromatograph fitted with 7683 auto-sampler (Agilent Technologies, Palo Alto, Calif.) and ZB-5 ms (Phenomenex, Macclesfield, UK) caplillary column (30 m×0.25 mm I.D.×0.25 μm d.f. with 5 m Guardian). Samples were injected using splitless injection technique at 250° C. and a helium gas flow of 2.0 ml min^−1. The oven was set at 70° C. for 2 min, then ramped at 7° C. min^−1 to 350° C. and held for 5 min. The GC interface and source temperatures were set to 250° C. and EI^+ mass spectra were acquired at 70 eV from 0 to 47 min with an acquisition rate of 1 spectra/sec. Chromatographic peaks were identified either from existing mass spectral and retention time data from standards previously analysed at Rothamsted Research LTD (Harpenden Herts, UK) or from the NIST mass spectral database in conjunction with retention data obtained from the literature (30). Determination of the accurate mass, to within 5 ppm, of M^+, M-15^+, M-57^+ was used to verify analyte identifications. The chromatograms obtained for each sample were compared to the derivatization reagent blank.
# [2] = Soluble phosphate release into bacterial free medium containing 5% PR; settings: bacteria free media with addition of IAA (0.5 mM)
# Excerpt: FIG. 4. Changes in soluble phosphate release into the bacterial free medium containing 5% phosphate rock (PR) as P source (P-limiting conditions for bacteria growing in a minimal media with PR). […] The amounts of each added organic acids derived from the data obtained in HPLC analysis and were reported in the Material and Methods section. Data are the mean±SD of five independent biological experiments (p<0.006). The concentration of soluble phosphate was estimated using a modification of Fiske and Subarrow method as described by […] et al. (37). […] Bacterial free medium was also treated with 0.5 mM IAA solution. A media that simulates growth is a media without bacteria or their supernatant. The media comprises only RP and the organic acids used as purified powder commercially available (SIGMA), the organic acids concentration used are that produced by the bacteria when grown in a defined media (with IAA, or without, or from RFD64).
# S. meliloti 1021 = test: Microarray gene expression of 1021 cells treated with 0.5 mM compound; settings: 1021 + 0.5 mM IAA vs untreated 1021; P-sufficient (13 mM);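 note: cells were harvested 3 h after the start of each treatment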
# Method: For P starvation experiments, cells of 1021 wild-type and RD64 strains were grown at 30° C. to mid exponential phase (OD600=0.6) in RMM broth containing 1% (w/v) mannitol as carbon source and 13 mM P, washed with RMM containing 0 P, resuspended in the same medium and then divided into three cultures. No P (−P), 1.0 mM P (P-starved cells) or 13 mM P (+P cells also named P-sufficient cells) was added into the three cultures, respectively. The P-starved and P-sufficient 1021 wild type cells were treated for 3.0 hours with 0.5 mM IAA. […] To rule out that this bacteria could be partially starved for Trp, RD64 cells were also treated with 0.5 mM Trp and used for microarrays and RT-PCR analyses. […] After 3 hours of each treatment, cell batches were collected, freezed and stored at −80° C. for use in experiments.
smiles,measurement,setting,value
"O=C(O)Cc1c[nH]c2ccccc12 [IAA, indole-3-acetic acid]",expression level of all five pho genes (RT-PCR),"[1]; P-starved conditions, vs control 1021",highly induced
same,phoB regulatory gene expression (qRT-PCR),"[1]; P-sufficient (13 mM K-phosphate), vs untreated 1021 cells",down-regulated
same,acid phosphatase activity,acid phosphatase,increase
same,"Organic acid content, Fumarate",S. meliloti cells,1.7 ± 0.1 mg/L
same,"Organic acid content, Malate",S. meliloti cells,86 ± 10 mg/L
same,"Organic acid content, Succinate",S. meliloti cells,864 ± 79 mg/L
same,concentration of soluble P in bacteria free media,[2],negligible
same,M (log2 ratio of intensities) Mc01302 rplP,S. meliloti 1021,−1.862
same,M (log2 ratio of intensities) SMa1118 hspC2,S. meliloti 1021,1.296
same,M (log2 ratio of intensities) SMb20893 gguB,S. meliloti 1021,1.754
same,M (log2 ratio of intensities) SMb20895 chvE,S. meliloti 1021,1.425
same,M (log2 ratio of intensities) SMb20922 smb20922,S. meliloti 1021,1.711
same,M (log2 ratio of intensities) SMb21174 phoT,S. meliloti 1021,−1.207
same,M (log2 ratio of intensities) SMb21177 phoC,S. meliloti 1021,−0.7939
same,M (log2 ratio of intensities) SMb21183 htpG,S. meliloti 1021,1.384
same,M (log2 ratio of intensities) SMb21197 oppB,S. meliloti 1021,1.111
same,M (log2 ratio of intensities) SMc00363 rpmI,S. meliloti 1021,−0.9807
same,M (log2 ratio of intensities) SMc00364 rplT,S. meliloti 1021,−0.715
same,M (log2 ratio of intensities) SMc00568 rpsF,S. meliloti 1021,−0.7616
same,M (log2 ratio of intensities) SMc01103 rbsK,S. meliloti 1021,1.2
same,M (log2 ratio of intensities) SMc01169 ald,S. meliloti 1021,3.025
same,M (log2 ratio of intensities) SMc01291 rpmD,S. meliloti 1021,−1.237
same,M (log2 ratio of intensities) SMc01295 rpsH,S. meliloti 1021,−0.8996
same,M (log2 ratio of intensities) SMc01296 rpsN,S. meliloti 1021,−0.8326
same,M (log2 ratio of intensities) SMc01301 rpmC,S. meliloti 1021,−1.273
same,M (log2 ratio of intensities) SMc01309 rplC,S. meliloti 1021,−0.7247
same,M (log2 ratio of intensities) SMc01319 rplJ,S. meliloti 1021,−1.438
same,M (log2 ratio of intensities) SMc01628 smc01628,S. meliloti 1021,0.7123
same,M (log2 ratio of intensities) SMc02475 smc02475,S. meliloti 1021,0.7339
same,M (log2 ratio of intensities) SMc02514 smc02514,S. meliloti 1021,1.764
same,M (log2 ratio of intensities) SMc02729 smc02729,S. meliloti 1021,0.8942
same,M (log2 ratio of intensities) SMc02786 smc02786,S. meliloti 1021,1.11
same,M (log2 ratio of intensities) SMc03168 smc03168,S. meliloti 1021,1.165
same,M (log2 ratio of intensities) SMc04087 smc04087,S. meliloti 1021,1.593

# Reference: patent US9157104B2, “Method to improve phosphate solubilization in plants” (Consiglio Nazionale delle Ricerche, priority 2009, dated 2015)
